# Experimental data from patent US10358446B2, “Bruton's tyrosine kinase inhibitors” (Zibo Biopolar Changsheng Pharmaceutical Co. Ltd., priority 2015, dated 2019).
# Target: BTK (Homo sapiens (Human), UniProt Q06187)
# Experiment: Btk kinase assay (HTRF)
# Type: biochemical
# Conditions: [ATP]=80 μM, BTK=3.4 nM; read-out: BTK Inhibition
# Outline: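 HTRF kinase read-out (665/615 nm ratio, excitation 330 nm) after EDTA quench and 1 h detection incubation. Reaction: 3.4 nM BTK, ATP 80 μM, peptide substrate 1 μM, compound, HEPES pH 7.0 buffer, 1 h; IC50 derived using uninhibited and enzyme-free controls.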
# Sequence of BTK (Q06187 whole entry, species assumed): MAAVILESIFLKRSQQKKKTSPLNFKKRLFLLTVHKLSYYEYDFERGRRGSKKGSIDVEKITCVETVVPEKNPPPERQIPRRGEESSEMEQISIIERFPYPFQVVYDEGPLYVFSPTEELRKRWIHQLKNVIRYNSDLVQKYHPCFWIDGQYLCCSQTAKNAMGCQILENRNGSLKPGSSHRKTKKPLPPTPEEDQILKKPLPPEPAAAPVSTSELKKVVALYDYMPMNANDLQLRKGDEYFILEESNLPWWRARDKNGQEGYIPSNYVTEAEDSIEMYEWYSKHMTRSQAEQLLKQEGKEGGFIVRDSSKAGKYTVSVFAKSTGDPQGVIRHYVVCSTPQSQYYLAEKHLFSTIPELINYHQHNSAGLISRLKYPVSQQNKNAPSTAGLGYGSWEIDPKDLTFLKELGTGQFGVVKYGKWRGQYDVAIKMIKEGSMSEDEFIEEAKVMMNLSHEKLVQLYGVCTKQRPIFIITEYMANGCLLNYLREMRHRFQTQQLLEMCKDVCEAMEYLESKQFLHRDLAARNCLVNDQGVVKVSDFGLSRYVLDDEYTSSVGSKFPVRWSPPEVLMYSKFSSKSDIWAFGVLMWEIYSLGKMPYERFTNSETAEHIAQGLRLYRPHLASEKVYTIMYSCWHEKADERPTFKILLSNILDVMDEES
row,Compound,IC50 [nM]
1,"C=CC(=O)N1CC[C@@H](n2c(=O)n(-c3ccc(OCc4cc(F)cc(F)c4)c(Cl)c3)c3cnccc32)C1 [Example 207, (R)-1-(1-acryloylpyrrolidin-3-yl)-3-(3-chloro-4-((3,5-difluorobenzyl)oxy)phenyl)-1H-imidazo[4,5-c]pyridin-2(3H)-one]",100 to 1000
2,"C=C(C)C(=O)N1CC[C@@H](n2c(=O)n(-c3cccc(Oc4ccccc4)c3)c3cnccc32)C1 [Example 156, (R)-1-(1-methacryloylpyrrolidin-3-yl)-3-(3-phenoxyphenyl)-1H-imidazo[4,5-c]pyridin-2(3H)-one]",1000 to 10000
3,"C=CC(=O)Nc1cccc(-n2c(=O)n(-c3ccc(OCc4ccccc4)c(F)c3)c3cnccc32)c1 [Example 234, N-(3-(3-(4-(benzyloxy)-3-fluorophenyl)-2-oxo-2,3-dihydro-1H-imidazo[4,5-c]pyridin-1-yl)phenyl)acrylamide]",100 to 1000
4,"C=CC(=O)Nc1cccc(-n2c(=O)n(-c3ccc(NC(=O)c4ccc(OC)cc4)cc3)c3cnccc32)c1 [Example 264, N-(4-(1-(3-acrylamidophenyl)-2-oxo-1H-imidazo[4,5-c]pyridin-3(2H)-yl)phenyl)-4-methoxybenzamidee]",100 to 1000
5,"CC(C)(C)/C=C(/C#N)C(=O)N1CCCC1Cn1c(=O)n(-c2ccc(Oc3ccccc3)cc2)c2cnccc21 (stereo not drawn) [Example 180, 4,4-Dimethyl-2-{2-[2-oxo-3-(4-phenoxy-phenyl)-2,3-dihydro-imidazo[4,5-c]pyridin-1-ylmethyl]-pyrrolidine-1-carbonyl}-pent-2-enenitrile]",100 to 1000
6,"C=CC(=O)Nc1cccc(-n2c(=O)n(-c3ccc(Oc4cccc(F)c4C)cc3)c3cnccc32)c1 [Example 79, N-(3-(3-(4-(3-fluoro-2-methylphenoxy)phenyl)-2-oxo-2,3-dihydro-1H-imidazo[4,5-c]pyridin-1-yl)phenyl)acrylamide]",10 to 100
7,"C=CC(=O)N1CC[C@@H](n2c(=O)n(-c3ccc(Oc4cccc(F)c4)c(Cl)c3)c3cnccc32)C1 [Example 41, (R)-1-(1-acryloylpyrrolidin-3-yl)-3-(3-chloro-4-(3-fluorophenoxy)phenyl)-1H-imidazo[4,5-c]pyridin-2(3H)-one]",≤ 10
8,"C=CC(=O)Nc1cccc(-n2c(=O)n(-c3ccc(Oc4ccc(OC)c(F)c4)cc3)c3cnccc32)c1 [Example 161, N-(3-(3-(4-(3-fluoro-4-methoxyphenoxy)phenyl)-2-oxo-2,3-dihydro-1H-imidazo[4,5-c]pyridin-1-yl)phenyl)acrylamide]",100 to 1000
9,"C=CC(=O)Nc1cccc(-n2c(=O)n(-c3cccc(Oc4ccccc4)c3)c3cnccc32)c1 [Example 7, N-(3-(2-oxo-3-(3-phenoxyphenyl)-2,3-dihydro-1H-imidazo[4,5-c]pyridin-1-yl)phenyl)acrylamide]",10 to 100
10,"C=CC(=O)Nc1cccc(-n2c(=O)n(-c3ccc(C(=O)Nc4ccccc4)cc3)c3cnccc32)c1 [Example 254, 4-(1-(3-acrylamidophenyl)-2-oxo-1H-imidazo[4,5-c]pyridin-3(2H)-yl)-N-phenylbenzamide]",1000 to 10000
11,"C=CC(=O)Nc1cccc(-n2c(=O)n(-c3ccc(Oc4ccccc4)c(F)c3)c3cnccc32)c1 [Example 93, N-(3-(3-(3-fluoro-4-phenoxyphenyl)-2-oxo-2,3-dihydro-1H-imidazo[4,5-c]pyridin-1-yl)phenyl)acrylamide]",≤ 10
12,"C=CC(=O)N1CC[C@@H](n2c(=O)n(-c3ccc(OCc4ccccc4)c(F)c3)c3cnccc32)C1 [Example 237, (R)-1-(1-acryloylpyrrolidin-3-yl)-3-(4-(benzyloxy)-3-fluorophenyl)-1,3-dihydro-2H-imidazo[4,5-c]pyridin-2-one]",10 to 100
13,"C=C(C)C(=O)N1CC[C@@H](n2c(=O)n(-c3ccc(Oc4ccccc4)cc3)c3cnccc32)C1 [Example 28, (R)-1-(1-methacryloylpyrrolidin-3-yl)-3-(4-phenoxyphenyl)-1H-imidazo[4,5-c]pyridin-2(3H)-one]",1000 to 10000
14,"C=CC(=O)N1CCC[C@@H](n2c(=O)n(-c3ccc(Oc4cccc(F)c4F)cc3)c3cnccc32)C1 [Example 61, (R)-1-(1-acryloylpiperidin-3-yl)-3-(4-(2,3-difluorophenoxy)phenyl)-1H-imidazo[4,5-c]pyridin-2(3H)-one]",10 to 100
15,"C=CC(=O)N1CCC[C@@H](n2c(=O)n(-c3ccc(Oc4cccc(OC(C)C)c4)cc3)c3cnccc32)C1 [Example 14, (R)-1-(1-acryloylpiperidin-3-yl)-3-(4-(3-isopropoxyphenoxy)phenyl)-1H-imidazo[4,5-c]pyridin-2(3H)-one]",10 to 100
16,"C=CC(=O)N1CCC(n2c(=O)n(-c3ccc(Oc4ccccc4)c(C)c3)c3cnccc32)C1 (stereo not drawn) [Example 91, 1-(1-acryloylpyrrolidin-3-yl)-3-(3-methy1-4-phenoxyphenyl)-1,3-dihydro-2H-imidazo[4,5-c]pyridin-2-one]",10 to 100
17,"C=CC(=O)Nc1cccc(-n2c(=O)n(-c3ccc(Oc4cccc(C)c4C)cc3)c3cnccc32)c1 [Example 147, N-(3-(3-(4-(2,3-dimethylphenoxy)phenyl)-2-oxo-2,3-dihydro-1H-imidazo[4,5-c]pyridin-1-yl)phenyl)acrylamide]",10 to 100

row,Compound,IC50 [nM]
1,"C=CC(=O)N1CC[C@@H](n2c(=O)n(-c3ccc(Oc4cccc(Cl)c4C)cc3)c3cnccc32)C1 [Example 139, (R)-1-(1-acryloylpyrrolidin-3-yl)-3-(4-(3-chloro-2-methylphenoxy)phenyl)-1H-imidazo[4,5-c]pyridin-2(3H)-one]",10 to 100
2,"C=CC(=O)N1CC[C@@H](n2c(=O)n(-c3ccc(OCc4ccc(Cl)cc4F)cc3)c3cnccc32)C1 [Example 244, (R)-1-(1-acryloylpyrrolidin-3-yl)-3-(4-((4-chloro-2-fluorobenzyl)oxy)phenyl)-1H-imidazo[4,5-c]pyridin-2(3H)-one]",100 to 1000
3,"C=CC(=O)Nc1cccc(-n2c(=O)n(-c3ccc(Oc4cccc(OC)c4)c(C)c3)c3cnccc32)c1 [Example 62, N-(3-(3-(4-(3-methoxyphenoxy)-3-methylphenyl)-2-oxo-2,3-dihydro-1H-imidazo[4,5-c]pyridin-1-yl)phenyl)acrylamide]",10 to 100
4,C=CC(=O)N1CC[C@@H](n2c(=O)n(-c3ccc(-c4ccc(OC)cc4F)cc3)c3cnccc32)C1 [Example 274],100 to 1000
5,"C=CC(=O)Nc1cccc(-n2c(=O)n(-c3ccc(Oc4ccccc4)cc3)c3ncccc32)c1 [Example 119, N-(3-(2-oxo-3-(4-phenoxyphenyl)-2,3-dihydro-1H-imidazo[4,5-b]pyridin-1-yl)phenyl)acrylamide]",1000 to 10000
6,"C=CC(=O)N1CC[C@@H](n2c(=O)n(-c3ccc(OCc4ccccn4)c(Cl)c3)c3cnccc32)C1 [Example 204, (R)-1-(1-acryloylpyrrolidin-3-yl)-3-(3-chloro-4-(pyridin-2-ylmethoxy)phenyl)-1H-imidazo[4,5-c]pyridin-2(3H)-one]",100 to 1000
7,"C=CC(=O)Nc1cccc(-n2c(=O)n(-c3ccc(OCc4ccc(C(F)(F)F)cc4)cc3)c3cnccc32)c1 [Example 242, N-(3-(2-oxo-3-(4-((4-(trifluoromethyl)benzyl)oxy)phenyl)-2,3-dihydro-1H-imidazo[4,5-c]pyridin-1-yl)phenyl)acrylamide]",100 to 1000
8,"C=CC(=O)N1CCC[C@@H](n2c(=O)n(-c3ccc(Oc4ccccc4)c(Cl)c3)c3cnccc32)C1 [Example 107, (R)-1-(1-acryloylpiperidin-3-yl)-3-(3-chloro-4-phenoxyphenyl)-1H-imidazo[4,5-c]pyridin-2(3H)-one]",10 to 100
9,"C=CC(=O)N1CCC[C@@H](n2c(=O)n(-c3ccc(Oc4cccc(F)c4)cc3)c3cnccc32)C1 [Example 117, (R)-1-(1-acryloylpiperidin-3-yl)-3-(4-(3-fluorophenoxy)phenyl)-1H-imidazo [4,5-c]pyridin-2(3H)-one]",10 to 100
10,"C=CC(=O)N1CC[C@@H](n2c(=O)n(-c3ccc(Oc4ccc(Cl)cc4)cc3)c3cnccc32)C1 [Example 82, (R)-1-(1-acryloylpyrrolidin-3-yl)-3-(4-(4-chlorophenoxy)phenyl)-1H-imidazo[4,5-c]pyridin-2(3H)-one]",100 to 1000
11,"C=CC(=O)Nc1cccc(-n2c(=O)n(-c3ccc(Oc4cccc(C)c4)c(F)c3)c3cnccc32)c1 [Example 49, N-(3-(3-(3-fluoro-4-(m-tolyloxy)phenyl)-2-oxo-2,3-dihydro-1H-imidazo[4,5-c]pyridin-1-yl)phenyl)acrylamide]",10 to 100
12,"C=CC(=O)Nc1cccc(-n2c(=O)n(-c3ccc(NC(=O)c4ccccc4C(F)(F)F)cc3)c3cnccc32)c1 [Example 262, N-(4-(1-(3-acrylamidophenyl)-2-oxo-1,2-dihydro-3H-imidazo[4,5-c]pyridin-3-yl)phenyl)-2-(trifluoromethyl)benzamide]",100 to 1000
13,"C=CC(=O)N1CC[C@@H](n2c(=O)n(-c3ccc(C(=O)NCc4cccc(OC)c4)cc3)c3cnccc32)C1 [Example 256, (R)-4-(1-(1-acryloylpyrrolidin-3-yl)-2-oxo-1H-imidazo[4,5-c]pyridin-3(2H)-yl)-N-(3-methoxybenzyl)benzamide]",1000 to 10000
14,"C=CC(=O)Nc1cccc(-n2c(=O)n(-c3ccc(C4CC4)cc3)c3cnccc32)c1 [Example 278, N-(3-(3-(4-cyclopropylphenyl)-2-oxo-2,3-dihydro-1H-imidazo[4,5-c]pyridin-1-yl)phenyl)acrylamide]",10 to 100
15,"C=CC(=O)Nc1cccc(-n2c(=O)n(-c3ccc(Oc4ccccc4)c(Cl)c3)c3cnccc32)c1 [Example 73, N-(3-(3-(3-chloro-4-phenoxyphenyl)-2-oxo-2,3-dihydro-1H-imidazo[4,5-c]pyridin-1-yl)phenyl)acrylamide]",10 to 100
16,"C=CC(=O)Nc1cccc(-n2c(=O)n(-c3ccc(OCc4c(F)cccc4F)c(F)c3)c3cnccc32)c1 [Example 227, N-(3-(3-(4-((2,6-difluorobenzyl)oxy)-3-fluorophenyl)-2-oxo-2,3-dihydro-1H-imidazo[4,5-c]pyridin-1-yl)phenyl)acrylamide]",100 to 1000
